Test results published in patent US10696689B2, “Somatostatin modulators and uses thereof” (CRINETICS PHARMACEUTICALS, INC., priority 2018, dated 2020).

Tests used:
[1] = target: human SST2 receptor (SSTR2) (Homo sapiens (Human), UniProt P30874); assay: cAMP assay: inhibition of cAMP via human SST2 receptor in CHO-K1 cells; format: cell-based; conditions: CHO-K1 cells stably expressing human SSTR2, NKH477 stimulated
From the text: (§1) General overview: All five SSTR subtypes are Gi coupled G-protein coupled receptors (GPCRs) that lead to decreases in intracellular cyclic AMP (cAMP) when activated by an agonist. Therefore, measurement of intracellular cAMP levels can be used to assess whether compounds of the invention are agonists of SSTR subtypes (John Kelly, Troy Stevens, W. Joseph Thompson, and Roland Seifert, Current Protocols in Pharmacology, 2005, 2.2.1-2.2). One example of an intracellular cAMP assay is described below.
(§2) Four days prior to the assay, 5,000 Chinese hamster ovary cells (CHO-K1, ATCC # CCL-61) stably expressing the human somatostatin receptor subtype 2 are plated in each well of a 96-well tissue culture-treated plate in Ham's F12 growth media (ThermoFisher #10-080-CM) supplemented with 10% donor bovine serum (Gemini Bio-Products #100-506), 100 U/mL penicillin; 100 ug/mL streptomycin; 2 mM L-glutamine (Gemini Bio-Products #400-110) and 0.2 mg/mL hygromycin B (GoldBio #31282-04-9). The cells are cultured at 37° C., 5% CO2 and 95% humidity. On the day of the assay, the media is aspirated and the cells are treated with 50 μL of 1.6 μM NKH477 (Sigma # N3290) plus various dilutions of compounds of the invention in assay buffer [1× Hank's Balanced Salt Solution (ThermoFisher # SH3058802), 0.5 mM HEPES pH 7.4, 0.1% bovine serum albumin, 0.2 mM 3-Isobutyl-1-methylxanthine (IBMX, VWR #200002-790)]. The cells are incubated for 20 minutes at 37° C. (the final concentration of the compounds of the invention are typically 0-10,000 nM). The cells are treated with 50 μL of lysis buffer (HRTF cAMP kit, Cisbio). The lysate is transferred to 384-well plates and cAMP detection and visualization antibodies are added and incubated for 1-24 hours at room temperature. The time-resolved fluorescent signal is read with a Tecan M1000Pro multiplate reader. The intracellular cAMP concentrations are calculated by regression to a standard curve and are plotted vs. the concentration of the compounds of the invention and the EC50 of the compounds are calculated using standard methods. All data manipulations are in GraphPad Prism v6.

hSSTR2 vs. hSSTR4 = assay: Selectivity for inhibition of cAMP via hSSTR2 vs. hSSTR4; format: cell-based, human; conditions: Table C
From the text: as §1, §2

[2] = Liver microsomal stability assay; format: in vitro ADME; conditions: human liver microsomes 0.5 mg/mL, 1 μM compound, 37° C.
Description: The in vitro stabilities of compounds of interest were determined for various species using pooled male and female human, pooled male Sprague-Dawley rat, pooled male Cynomolgus monkey, and pooled male Beagle dog liver microsomes at microsomal protein concentrations of 0.5 mg/mL. Incubations were carried out in a potassium phosphate buffer (50 mM). The NADPH-generating system was composed of NADP+ (1 mM), magnesium chloride (3 mM), EDTA (1 mM), glucose-6-phosphate (5 mM) and glucose-6-phosphate dehydrogenase (1 Unit/mL) for all experiments. Compounds of interest in DMSO were added to achieve a final incubation concentration of 1 μM (final DMSO content was 0.1% v/v and final acetonitrile content was 0.9%). The final incubation volume was 400 μL. Incubations were conducted at 37° C. for 0, 5, 10, 20, 40 and 60 minutes in a shaking water bath and terminated by removing 50 μL of incubation mixture and adding to 100 μL of ice cold acetonitrile containing internal standard. Following precipitation by centrifugation at 3500 rpm and 4° C. for 30 minutes, compounds of interest and internal standard were analyzed in the resultant supernatant using a multiple reaction monitoring (MRM) LC-MS/MS method. MS conditions were optimized for each analyte.
The following Table (Table D) illustrates human liver microsomal stability of exemplary compounds.

Chain of human SST2 receptor (SSTR2) (P30874 whole entry): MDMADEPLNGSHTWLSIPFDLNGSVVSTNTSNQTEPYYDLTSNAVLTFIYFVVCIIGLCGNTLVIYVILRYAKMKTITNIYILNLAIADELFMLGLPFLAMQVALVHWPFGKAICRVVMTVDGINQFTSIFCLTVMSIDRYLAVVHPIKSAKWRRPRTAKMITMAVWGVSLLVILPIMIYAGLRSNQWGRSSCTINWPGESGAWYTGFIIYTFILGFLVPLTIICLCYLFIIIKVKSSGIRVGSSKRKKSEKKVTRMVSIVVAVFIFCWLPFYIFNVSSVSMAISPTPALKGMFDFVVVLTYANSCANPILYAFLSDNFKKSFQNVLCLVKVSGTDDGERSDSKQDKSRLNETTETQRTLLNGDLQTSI

SMILES | EC50 [1] [nM] | hSST4/hSST2 (ratio) (hSSTR2 vs. hSSTR4) | HLM t1/2 [2] [h]
Nc1ncc(-c2cccc(F)c2)c(N2CC[C@@H]3NCCO[C@H]3C2)c1-c1nc2c(F)cc(F)cc2[nH]1 [Compound 3-3, 4-[(4αS,8αS)-octahydro-1H-pyrido[3,4-b][1,4]oxazin-6-yl]-3-(4,6-difluoro-1H-1,3-benzodiazol-2-yl)-5-(3-fluorophenyl)pyridin-2-amine] | 0.1 to 1 | c (c = between 2.5 and 15;) | 3.85
COc1cc(C#N)cc2[nH]c(-c3c(N)ncc(-c4cccc(F)c4)c3N3CC[C@@H]4NCCO[C@H]4C3)nc12 [Compound 3-11, 2-{4-[(4αS, 8αS)-octahydro-1H-pyrido[3,4-b][1,4]oxazin-6-yl]-2-amino-5-(3-fluorophenyl)pyridin-3-yl}-4-methoxy-1H-1,3-benzodiazole-6-carbonitrile] | 0.1 to 1 | a (a = above 50,) | >11.6
COc1cc(C#N)cc2[nH]c(-c3c(N)ncc(-c4cc(F)cc(F)c4)c3N3CC[C@@H]4NCCO[C@H]4C3)nc12 [Compound 3-18, 2-{4-[(4αS,8αS)-octahydro-1H-pyrido[3,4-b][1,4]oxazin-6-yl]-2-amino-5-(3,5-difluorophenyl)pyridin-3-yl}-4-methoxy-1H-1,3-benzodiazole-6-carbonitrile] | 0.1 to 1 | b (b = bewteen 15 and 50;) | 1.65
N#Cc1cc(F)c2nc(-c3c(N)ncc(-c4cc(F)cc(F)c4)c3N3CC[C@@H]4OCCN[C@H]4C3)[nH]c2c1 [Compound 3-19, 2-{4-[(4αS,8αS)-octahydro-1H-pyrido[3,4-b][1,4]oxazin-6-yl]-2-amino-5-(3,5-difluorophenyl)pyridin-3-yl}-4-fluoro-1H-1,3-benzodiazole-6-carbonitrile] | 0.1 to 1 | b (b = bewteen 15 and 50;) | 5.78
